Results from US9157104B2, “Method to improve phosphate solubilization in plants” (Consiglio Nazionale delle Ricerche, priority 2009, dated 2015).

Experiments:
[1] = system: pho operon genes in S. meliloti cells; experiment: Quantitative RT-PCR analysis of pho operon genes; format: cell-based; conditions: compounds 0.5 mM, 3 hours
Protocol: FIG. S1. Quantitative RT-PCR analysis of pho operon genes in S. meliloti cells under P-sufficient conditions (13 mM K-phosphate). The relative expression level was >1 for genes more highly expressed in RD64 and in 1021 cells treated for 3 hours with 0.5 mM IAA, Ind, Trp, ICA and 2,4-D. The relative expression level was <1 for genes more highly expressed in 1021 cells (control). Error bars represent the standard deviation from three independent biological experiments.
FIG. 1. Quantitative RT-PCR analysis of pho operon genes expression in S. meliloti cells under P-starving conditions. The relative expression level was >1 for genes more highly expressed in RD64 and in 1021 cells treated for 3 hours with 0.5 mM IAA, Ind, Trp, ICA and 2,4-D. The relative expression level was <1 for genes more highly expressed in 1021 cells (control). Error bars represent the standard deviation from five independent biological experiments (p<0.05).
Total RNA from P-sufficient and P-starved cells was isolated as previously described (5). cDNA were synthesized with the StrataScript™ reverse transcription reagents (Stratagene) and random hexamers as primers. Quantitative PCR was performed with the Power SYBR PCR Master Mix (Applied Biosystems). Reactions were run on the iCycler iQ (Bio-Rad). The thermo cycling condition were: 15 min at 95° C., 40 cycles of denaturation at 95° C. for 20 s, annealing (20 s) and extension (35 s) at 72° C. Specific primer pairs, designed using the Primer3 software, are shown.
smc02641 and smc00128 were used as housekeeping genes for data normalization in the comparative Ct method as previously described (8). Phosphatase Activity

S. meliloti 1021 = experiment: Microarray gene expression of 1021 cells treated with 0.5 mM compound; conditions: P-sufficient (13 mM);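 note: cells were harvested 3 h after the start of each treatment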
Protocol: For P starvation experiments, cells of 1021 wild-type and RD64 strains were grown at 30° C. to mid exponential phase (OD600=0.6) in RMM broth containing 1% (w/v) mannitol as carbon source and 13 mM P, washed with RMM containing 0 P, resuspended in the same medium and then divided into three cultures. No P (−P), 1.0 mM P (P-starved cells) or 13 mM P (+P cells also named P-sufficient cells) was added into the three cultures, respectively. The P-starved and P-sufficient 1021 wild type cells were treated for 3.0 hours with 0.5 mM IAA. […] To rule out that this bacteria could be partially starved for Trp, RD64 cells were also treated with 0.5 mM Trp and used for microarrays and RT-PCR analyses. […] After 3 hours of each treatment, cell batches were collected, freezed and stored at −80° C. for use in experiments.

acid phosphatase = experiment: Acid phosphatase activity under P-starved conditions; format: cell-based, S. meliloti; conditions: phosphate starvation; vs 1021 cells; compounds 0.5 mM, 3 hours at 30° C.
alkaline phosphatase = conditions: phosphate starvation; vs 1021 cells; compounds 0.5 mM, 3 hours at 30° C.
Protocol: Acid (A) and alkaline (B) phosphatase activity in S. meliloti cells under P-starved conditions. Log-phase cells grown in a MOPS-buffered minimal medium (starting P concentration=13 mM) were washed and then resuspended in the same medium containing no added P (1021 and RD64 strains) and 0.5 mM IAA, Trp or Ind (1021 strain). Treatments were performed for 3 hours at 30° C.
Alkaline and acid phophatase enzymes under P-limiting conditions were assayed as previously reported (16). Units are reported as nanomoles per minute per milligram of protein. Protein concentrations were determined by the Bradford's assay.

[2] = 1021 + 0.5 mM ICA vs untreated 1021
[3] = 1021 + 0.5 mM Indole vs untreated 1021

O=C(O)c1c[nH]c2ccccc12 [ICA, indole-3-carboxylic acid]
phoB regulatory gene expression (qRT-PCR) ([1]; P-sufficient (13 mM K-phosphate), vs untreated 1021 cells): unaffected | M (log2 ratio of intensities) SMa1077 nex18 (S. meliloti 1021; [2]): 0.9938 | M (log2 ratio of intensities) SMa1118 hspC2 (S. meliloti 1021; [2]): 1.111 | M (log2 ratio of intensities) SMa1128 degP4 (S. meliloti 1021; [2]): 1.148 | M (log2 ratio of intensities) SMa1306 virB9 (S. meliloti 1021; [2]): 0.9404 | M (log2 ratio of intensities) SMb21183 htpG (S. meliloti 1021; [2]): 0.7619 | M (log2 ratio of intensities) SMc00323 rpsO (S. meliloti 1021; [2]): −0.722 | M (log2 ratio of intensities) SMc00335 rpsA (S. meliloti 1021; [2]): −0.7763 | M (log2 ratio of intensities) SMc00514 smc00514 (S. meliloti 1021; [2]): 0.8721 | M (log2 ratio of intensities) SMc00537 smc00537 (S. meliloti 1021; [2]): 0.9583 | M (log2 ratio of intensities) SMc00868 atpF (S. meliloti 1021; [2]): −0.8306 | M (log2 ratio of intensities) SMc00912 groES1 (S. meliloti 1021; [2]): −1.491 | M (log2 ratio of intensities) SMc00913 groEL1 (S. meliloti 1021; [2]): −0.8349 | M (log2 ratio of intensities) SMc01169 ald (S. meliloti 1021; [2]): 1.71 | M (log2 ratio of intensities) SMc01309 rplC (S. meliloti 1021; [2]): −0.7558 | M (log2 ratio of intensities) SMc01326 tufB (S. meliloti 1021; [2]): −0.8768 | M (log2 ratio of intensities) SMc01534 smc01534 (S. meliloti 1021; [2]): 0.9277 | M (log2 ratio of intensities) SMc01793 smc01793 (S. meliloti 1021; [2]): −0.7625 | M (log2 ratio of intensities) SMc02498 atpH (S. meliloti 1021; [2]): −0.7281 | M (log2 ratio of intensities) SMc02603 smc02603 (S. meliloti 1021; [2]): 1.484 | M (log2 ratio of intensities) SMc03030 flgG (S. meliloti 1021; [2]): −0.7501 | M (log2 ratio of intensities) SMc03037 flaA (S. meliloti 1021; [2]): −0.7114 | M (log2 ratio of intensities) SMc03168 smc03168 (S. meliloti 1021; [2]): 1.005 | M (log2 ratio of intensities) SMc03253 smc03253 (S. meliloti 1021; [2]): 1.14 | M (log2 ratio of intensities) SMc03829 smc03829 (S. meliloti 1021; [2]): 0.9065 | M (log2 ratio of intensities) SMc04040 ibpA (S. meliloti 1021; [2]): 1.474 | M (log2 ratio of intensities) SMc04114 pilA1 (S. meliloti 1021; [2]): −0.7274 | M (log2 ratio of intensities) SMc04140 smc04140 (S. meliloti 1021; [2]): 1.126 | M (log2 ratio of intensities) SMc04307 cyaD2 (S. meliloti 1021; [2]): 1.012 | pho genes among those significantly affected (microarray) (S. meliloti 1021; 1021 + 0.5 mM compound vs untreated 1021): did not find any pho genes

c1ccc2[nH]ccc2c1 [Indole, indole]
expression level of all five pho genes (RT-PCR) ([1]; P-starved conditions, vs control 1021): only slightly induced or unchanged | acid phosphatase activity (acid phosphatase): unaffected, or only slightly increased | alkaline phosphatase activity (alkaline phosphatase): unaffected, or only slightly increased | M (log2 ratio of intensities) SMa1077 nex18 (S. meliloti 1021; [3]): 0.7413 | M (log2 ratio of intensities) SMa1087 sma1087 (S. meliloti 1021; [3]): 0.7199 | M (log2 ratio of intensities) SMa1128 degP4 (S. meliloti 1021; [3]): 1.152 | M (log2 ratio of intensities) SMa1329 sma1329 (S. meliloti 1021; [3]): 1.658 | M (log2 ratio of intensities) SMb21177 phoC (S. meliloti 1021; [3]): 1.282 | M (log2 ratio of intensities) SMb21183 htpG (S. meliloti 1021; [3]): 0.9544 | M (log2 ratio of intensities) SMc00182 smc00182 (S. meliloti 1021; [3]): −0.9429 | M (log2 ratio of intensities) SMc00335 rpsA (S. meliloti 1021; [3]): −0.7083 | M (log2 ratio of intensities) SMc00364 rplT (S. meliloti 1021; [3]): −1.373 | M (log2 ratio of intensities) SMc00383 gst3 (S. meliloti 1021; [3]): −0.7478 | M (log2 ratio of intensities) SMc01106 smc01106 (S. meliloti 1021; [3]): 1.513 | M (log2 ratio of intensities) SMc01291 rpmD (S. meliloti 1021; [3]): −1.485 | M (log2 ratio of intensities) SMc01308 rplD (S. meliloti 1021; [3]): −1.252 | M (log2 ratio of intensities) SMc01311 tufA (S. meliloti 1021; [3]): −0.711 | M (log2 ratio of intensities) SMc01312 fusA1 (S. meliloti 1021; [3]): 0.9128 | M (log2 ratio of intensities) SMc01318 rplL (S. meliloti 1021; [3]): −0.7037 | M (log2 ratio of intensities) SMc01946 livK (S. meliloti 1021; [3]): −1.077 | M (log2 ratio of intensities) SMc02501 atpD (S. meliloti 1021; [3]): −1.405 | M (log2 ratio of intensities) SMc02857 dnaK (S. meliloti 1021; [3]): 0.7321 | M (log2 ratio of intensities) SMc03159 smc03159 (S. meliloti 1021; [3]): −0.938 | M (log2 ratio of intensities) SMc03167 smc03167 (S. meliloti 1021; [3]): 0.7656 | M (log2 ratio of intensities) SMc03253 smc03253 (S. meliloti 1021; [3]): 1.951 | M (log2 ratio of intensities) SMc03829 smc03829 (S. meliloti 1021; [3]): 0.8604 | M (log2 ratio of intensities) SMc04040 ibpA (S. meliloti 1021; [3]): 2.449 | M (log2 ratio of intensities) SMc04087 smc04087 (S. meliloti 1021; [3]): 1.944 | M (log2 ratio of intensities) SMc04114 pilA1 (S. meliloti 1021; [3]): −1.888 | M (log2 ratio of intensities) SMc04140 smc04140 (S. meliloti 1021; [3]): 1.411 | M (log2 ratio of intensities) SMc04141 gst9 (S. meliloti 1021; [3]): 1.708
